# Target: hGPR88 receptor (Homo sapiens, UniProt Q9GZN0)
# Assay: hGPR88-HEK cAMP accumulation assay
# Details: GRP88 agonist activity (EC50), HEK-293 cells expressing human recombinant GPR88, forskolin 200 nM, High/Medium/Low bands
# hGPR88 receptor, sequence (Q9GZN0 whole entry): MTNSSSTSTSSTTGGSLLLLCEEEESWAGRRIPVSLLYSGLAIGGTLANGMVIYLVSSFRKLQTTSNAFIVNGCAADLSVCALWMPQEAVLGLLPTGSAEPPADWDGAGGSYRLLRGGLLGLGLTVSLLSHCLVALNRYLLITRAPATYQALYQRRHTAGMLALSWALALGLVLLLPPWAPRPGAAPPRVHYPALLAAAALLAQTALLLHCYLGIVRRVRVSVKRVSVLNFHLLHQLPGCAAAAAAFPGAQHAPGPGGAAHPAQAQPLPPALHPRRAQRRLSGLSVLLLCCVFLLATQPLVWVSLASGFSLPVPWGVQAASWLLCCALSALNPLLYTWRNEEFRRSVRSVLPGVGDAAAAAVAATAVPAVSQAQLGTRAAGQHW
row,SMILES,EC50 [µM]
1,"O=C(Nc1ccc(-c2ccc(CN3CCOCC3)cc2)cn1)C1CC1c1ccccn1 (racemic) [Example 83, (rac-trans)-N-(5-(4-(morpholinomethyl)phenyl)pyridin-2-yl)-2-(pyridin-2-yl)cyclopropane-1-carboxamide]",1 to 5
2,"COCc1ccc(-c2ccc(NC(=O)C(C)(C)Oc3ccc(C)cc3)cc2)cc1 [Example 128, N-(4′-(methoxymethyl)-[1,1-biphenyl]-4-yl)-2-methyl-2-(p-tolyloxy) propenamide]",< 1
3,CN(C(=O)C(C)(C)Oc1ccc(F)cc1)c1ccc(-c2ccc(CO)cc2F)cc1 [Example 108],1 to 5
4,"COCc1ccc(-c2ccc(NC(=O)C(C)(C)Oc3ccc(F)cc3F)cc2)cc1 [Example 63, 2-(2,4-difluorophenoxy)-N-(4′-(methoxymethyl)-[1,1′-biphenyl]-4-yl)-2-methylpropanamide]",< 1
5,"CC(C)Cc1ccc(-c2ccc(NC(=O)C(C)(C)Oc3ccc(F)cc3)cc2)cc1 [Example 42, 2-(4-fluorophenoxy)-N-(4′-isobutyl-[1,1′-biphenyl]-4-yl)-2-methylpropanamide]",> 5
6,"COCc1ccc(-c2ccc(NC(=O)C(C)(C)Oc3cccc(C)c3)cc2)cc1 [Example 58, N-(4′-(methoxymethyl)-[1,1′-biphenyl]-4-yl)-2-methyl-2-(m-tolyloxy)propenamide]",< 1
7,"COCc1ccc(-c2ccc(N(CCC#N)C(=O)C(C)(C)Oc3ccc(F)cc3)cc2)cc1 [Example 139, N-(2-cyanoethyl)-2-(4-fluorophenoxy)-N-(4′-(methoxymethyl)-[1,1′-biphenyl]-4-yl)-2-methylpropanamide]",> 5
8,"CCOc1ccc(-c2ccc(NC(=O)C3(Oc4ccc(F)cc4)CC3)cc2)cn1 [Example 106, N-(4-(6-ethoxypyridin-3-yl)phenyl)-1-(4-fluorophenoxy)cyclopropane-1-carboxamide]",1 to 5
9,"CCc1ccc(OC(C)(C)C(=O)Nc2ccc(-c3ccc(COC)cc3)cc2)cc1 [Example 57, 2-(4-ethylphenoxy)-N-(4′-(methoxymethyl)-[1,1′-biphenyl]-4-yl)-2-methylpropanamide]",< 1
10,"COCc1ccc(-c2ccc(NC(=O)C3(Oc4ccc(F)cc4)CCC3)cc2)cc1 [Example 127, 1-(4-fluorophenoxy)-N-(4′-(methoxymethyl)-[1,1′-biphenyl]-4-yl)cyclobutane-1-carboxamide]",< 1
11,"CN1CCN(Cc2ccc(-c3ccc(NC(=O)C(C)(C)Oc4ccc(F)cc4)cc3)cc2)CC1 [Example 72, 2-(4-fluorophenoxy)-2-methyl-N-(4′-((4-methylpiperazin-1-yl)methyl)-[1,1′-biphenyl]-4-yl)propanamide]",1 to 5
12,"COCc1ccc(-c2ccc(NC(=O)C(C)(C)Oc3cccnn3)cc2)cc1 [Example 69, N-(4′-(methoxymethyl)-[1,1′-biphenyl]-4-yl)-2-methyl-2-(pyridazin-3-yloxy)propenamide]",> 5
13,"O=C(c1ccc(-c2ccc(NC(=O)C3(Oc4ccc(F)cc4)CC3)cc2)cc1)N1CCOCC1 [Example 105, 1-(4-fluorophenoxy)-N-(4′-(morpholine-4-carbonyl)-[1,1′-biphenyl]-4-yl)cyclopropane-1-carboxamide]",1 to 5
14,"COCc1ccc(-c2ccc3c(c2)CCCN3C(=O)C2CC2c2ccccn2)cc1 (racemic) [Example 43, (6-(4-(methoxymethyl)phenyl)-3,4-dihydroquinolin-1(2H)-yl)((rac-trans)-2-(pyridin-2-yl)cyclopropyl)methanone]",> 5
15,"COCc1ccc(-c2ccc(NC(=O)C(C)(C)Oc3ccccc3OC)cc2)cc1 [Example 101, N-(4′-(methoxymethyl)-[1,1′-biphenyl]-4-yl)-2-(2-methoxyphenoxy)-2-methylpropanamide]",1 to 5
16,"COCc1ccc(-c2ccc(NC(=O)C(C)(C)Oc3c(F)cccc3F)cc2)cc1 [Example 99, 2-(2,6-difluorophenoxy)-N-(4′-(methoxymethyl)-[1,1′-biphenyl]-4-yl)-2-methylpropanamide]",1 to 5
17,"CC(C)(Oc1ccc(C#N)cc1)C(=O)Nc1ccc(-c2ccc(CN3CCOCC3)cc2)cc1 [Example 124, 2-(4-cyanophenoxy)-2-methyl-N-(4′-(morpholinomethyl)-[1,1′-biphenyl]-4-yl)propenamide]",< 1
18,"CC(C)(Oc1ccc(F)cc1)C(=O)Nc1ccc(-c2cnc(C(F)(F)F)nc2)cc1 [Example 38, 2-(4-fluorophenoxy)-2-methyl-/-(4-(2-(trifluoromethyl)pyrimidin-5-yl)phenyl)propenamide]",> 5
19,"CC(C)Oc1ccc(-c2ccc(NC(=O)C3CC3c3ccccn3)cc2)cn1 (single isomer, unassigned) [Example 133, N-(4-(6-isopropoxypyridin-3-yl)phenyl)-2-(pyridin-2-yl)cyclopropane-1-carboxamide]",1 to 5
20,"CCOc1ccc(-c2ccc(NC(=O)C(C)(C)Oc3ccc(C#N)cc3)cc2)cn1 [Example 116, 2-(4-cyanophenoxy)-N-(4-(6-ethoxypyridin-3-yl)phenyl)-2-methylpropanamide]",1 to 5

row,SMILES,EC50 [µM]
1,"COc1ccc(OC(C)(C)C(=O)Nc2ccc(-c3cnc(N(C)C)nc3)cc2)cc1 [Example 95, N-(4-(2-(dimethylamino)pyrimidin-5-yl)phenyl)-2-(4-methoxyphenoxy)-2-methylpropanamide]",1 to 5
2,"CN(C)Cc1ccc(-c2ccc(NC(=O)C(C)(C)Oc3ccc(F)cc3)nc2)cc1 [Example 80, N-(5-(4-((dimethylamino)methyl)phenyl)pyridin-2-yl)-2-(4-fluorophenoxy)-2-methylpropanamide]",1 to 5
3,"COCc1ccc(C23CC(NC(=O)C4CC4c4ccccn4)(C2)C3)cc1 (racemic) [Example 112, (rac-trans)-N-(3-(4-(methoxymethyl)phenyl)bicyclo[1.1.1]pentan-1-yl)-2-(pyridin-2-yl)cyclopropane-1-carboxamide]",> 5
4,"CC(C)(Oc1ccc(F)cc1)C(=O)Nc1ccc(-c2ccc(S(C)(=O)=O)cc2)cc1 [Example 52, 2-(4-fluorophenoxy)-2-methyl-N-(4′-(methylsulfonyl)-[1,1′-biphenyl]-4-yl)propenamide]",> 5
5,"CC(C)Oc1ccc(-c2ccc(NC(=O)C3CC3c3ccccn3)cc2)cc1 (racemic) [Example 90, (rac-trans)-N-(4′-isopropoxy-[1,1′-biphenyl]-4-yl)-2-(pyridin-2-yl)cyclopropane-1-carboxamide]",1 to 5
6,"CCOc1ccc(-c2ccc(NC(=O)C(C)(C)Oc3ccc(OC)cc3)cc2)cn1 [Example 94, N-(4-(6-ethoxypyridin-3-yl)phenyl)-2-(4-methoxyphenoxy)-2-methylpropanamide]",1 to 5
7,"CC(C)(C)OCc1ccc(-c2ccc(NC(=O)C(C)(C)Oc3ccc(F)cc3)cc2)cc1 [Example 89, N-(4′-(tert-butoxymethyl)-[1,1′-biphenyl]-4-yl)-2-(4-fluorophenoxy)-2-methylpropanamide]",< 1
8,"CCCc1ccc(C23CC(NC(=O)C4CC4c4ccccn4)(C2)C3)cc1 (racemic) [Example 34, (rac-trans)-N-(3-(4-propylphenyl)bicyclo[1.1.1]pentan-1-yl)-2-(pyridin-2-yl)cyclopropane-1-carboxamide]",1 to 5
9,"COCc1ccc(-c2ccc(NC(=O)C(C)(C)Oc3ccc(OC)cc3)cc2)cc1 [Example 66, N-(4′-(methoxymethyl)-[1,1′-biphenyl]-4-yl)-2-(4-methoxyphenoxy)-2-methylpropanamide]",< 1
10,"COCc1ccc(-c2ccc(N(CC3CC3)C(=O)C(C)(C)Oc3ccc(F)cc3)cc2)cc1 [Example 29, N-(cyclopropylmethyl)-2-(4-fluorophenoxy)-N-(4′-(methoxymethyl)-[1,1′-biphenyl]-4-yl)-2-methylpropanamide]",1 to 5
11,"COCc1ccc(-c2ccc(NC(=O)C(C)(C)Oc3ccc(Cl)cc3Cl)cc2)cc1 [Example 96, 2-(2,4-dichlorophenoxy)-N-(4′-(methoxymethyl)-[1,1′-biphenyl]-4-yl)-2-methylpropanamide]",> 5
12,"CC(C)(Oc1ccc(F)cc1)C(=O)Nc1ccc(-c2ccc(C(=O)N3CCOCC3)cc2)cc1 [Example 27, 2-(4-fluorophenoxy)-2-methyl-N-(4′-(morpholine-4-carbonyl)-[1,1′-biphenyl]-4-yl)propenamide]",1 to 5
13,"COCc1ccc(-c2ccc(NC(=O)C(C)(C)Oc3ccc(F)cc3)nc2)cc1 [Example 40, 2-(4-fluorophenoxy)-N-(5-(4-(methoxymethyl)phenyl)pyridin-2-yl)-2-methylpropanamide]",1 to 5
14,"CN(C)c1ncc(-c2ccc(NC(=O)C3CC3c3ccccn3)cc2)cn1 (stereo not drawn) [Example 126, N-(4-(2-(dimethylamino)pyrimidin-5-yl)phenyl)-2-(pyridin-2-yl)cyclopropane-1-carboxamide]",> 5
15,"COCc1ccc(-c2ccc(NC(=O)C3CC3c3ccc(F)cc3)cc2)cc1 (racemic) [Example 54, (rac-trans)-2-(4-fluorophenyl)-N-(4′-(methoxymethyl)-[1,1′-biphenyl]-4-yl)cyclopropane-1-carboxamide]",> 5
16,"CCN(C(=O)C(C)(C)Oc1ccc(F)cc1)c1ccc(-c2ccc(COC)cc2)cc1 [Example 14, N-ethyl-2-(4-fluorophenoxy)-N-(4′-(methoxymethyl)-[1,1′-biphenyl]-4-yl)-2-methylpropanamide]",1 to 5
17,"COCc1ccc(C23CC(NC(=O)C4CC4c4ccccn4)(C2)C3)cc1 (racemic) [Example 44, (rac-trans)-N-(3-(4-(methoxymethyl)phenyl)bicyclo[1.1.1]pentan-1-yl)-2-(pyridin-2-yl)cyclopropane-1-carboxamide]",1 to 5
18,"CC(c1ccc(-c2ccc(NC(=O)C(C)(C)Oc3ccc(F)cc3)cc2)cc1)N1CCOCC1 (stereo not drawn) [Example 47, 2-(4-fluorophenoxy)-2-methyl-N-(4′-(1-morpholinoethyl)-[1,1′-biphenyl]-4-yl)propanamide]",1 to 5
19,"CCOCc1ccc(-c2ccc(NC(=O)C(C)(C)Oc3ccc(F)cc3)cc2)cc1 [Example 86, N-(4′-(ethoxymethyl)-[1,1′-biphenyl]-4-yl)-2-(4-fluorophenoxy)-2-methylpropanamide]",< 1
